Data: patent publication US6906205B2, “Spiro and dispiro 1,2,4-trioxolane antimalarials” (Medicines for Malaria Venture MMV, priority 2002, dated 2005)
≈ marks a conversion by molar mass, not a printed value.

How the values were obtained:
[1] = test system: ANKA strain of P. berghei; test: single dose STI in vivo screen in infected mice; design: species or system Plasmodium berghei; details: for Activity (%) po / Activity (%) sc / Activity (%) SSVpo: percent reduction in parasitemia day 3 post-infection, mice; for Activity (%) po / Survival (days) po: single 10 mg/kg po in 3% ethanol and 7% Tween 80; for Activity (%) sc / Survival (days) sc: single 10 mg/kg sc in 3% ethanol and 7% Tween 80; for Activity (%) SSVpo: single po dose in standard suspending vehicle (SSV); for Survival (days) po / Survival (days) sc / Survival (days) SSVpo: untreated control 5.6 ± 0.3; for Survival (days) SSVpo: single po dose in SSV
In short: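 Groups of 3-5 Moro SPF or NMRI mice infected with the ANKA strain of P. berghei received a single dose of trioxolane on day one post-infection. The compound was given in 3% ethanol and 7% Tween 80 or in SSV (0.5% w/v CMC, 0.5% v/v benzyl alcohol, 0.4% v/v Tween 80, 0.9% w/v sodium chloride in water). Antimalarial activity was scored as percent reduction in parasitemia on day three and as survival time versus untreated controls. Survival to day 30 counted as cure.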

[2] = test system: ANKA strain of Plasmodium berghei; test: single dose ED50/ED90/ED99 determinations in infected mice; assay type: in vivo; details: single dose po in SSV, mice, percent reduction in parasitemia on day three post-infection
Protocol: In the single dose ED50/ED90/ED99 determinations, Moro SPF or NMRI mice (group of three) infected with the ANKA strain of Plasmodium berghei were treated on day one post-infection. […] The SSV consists of 0.5% w/v CMC, 0.5% v/v benzyl alcohol, 0.4% v/v Tween 80, and 0.9% w/v sodium chloride in water. Antimalarial activity was measured by percent reduction in parasitemia on day three post-infection. The ED50/ED90 values were calculated by nonlinear fitting.

[3] = test system: P. falciparum K1 strain (Thailand resistant to chloroquine); test: semiautomated microdilution assay, [3H]-hypoxanthine incorporation, K1 strain; assay type: cell-based, Plasmodium falciparum; details: K1 strain, 72 h incubation
In short: (§1)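 Compounds were tested against intraerythrocytic parasites taken from asynchronous stock cultures, using semiautomated microdilution. IC50 values were estimated by logit regression analysis.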

[4] = test system: P. falciparum NF54 strain (sensitive to standard antimalarials); test: semiautomated microdilution assay, [3H]-hypoxanthine incorporation, NF54 strain; assay type: cell-based, Plasmodium falciparum; details: NF54 strain, 72 h incubation
In short: as §1

[5] = test system: Schistosoma mansoni adult schistosomes (49-day-old); test: effect on adult schistosomes (49-day-old) in mice; assay type: in vivo; details: single 400 mg/kg per os
Protocol: Mice were infected with 100 Schistosoma mansoni cercariae […]. Each group was treated per os with OZ compounds at single doses of 200, 400, and 600 mg/kg. […] All groups were killed 4 weeks after treatment and the liver and intestine were removed and separated. The liver and intestine were compressed and alive male and female worms could be seen and counted.

[6] = test system: Schistosoma mansoni 21-day-old schistosomules; test: effect on 21-day-old schistosomules in mice; assay type: in vivo; details: single 200 mg/kg per os, female mice
Protocol: All groups were killed 4 weeks after treatment and the liver and intestine were removed and separated. The liver and intestine were compressed and alive male and female worms could be seen and counted. The effect of the compounds was evaluated by mean total and female worm burden.

SMILES | Activity (%) po [1] [%] | Activity (%) sc [1] [%] | Activity (%) SSVpo [1] [%] | Survival (days) po [1] [days] | Survival (days) sc [1] [days] | Survival (days) SSVpo [1] [days] | ED50 [2] [mg/kg] | ED90 [2] [mg/kg] | ED99 [2] [mg/kg] | IC50 (ng/ml) K1 [3] | IC50 (ng/ml) NF54 [4] | % reduction of adult worms growth at day 49 after per os application of 400 mg/kg, TWR (%) [5] [%] | adult worms at day 49, per os 400 mg/kg, DEAD WORM (%) [5] [%] | % reduction of schistosomule growth at day 21 after per os application of 200 mg/kg, FWR (%) [6] [%] | % reduction of schistosomule growth at day 21 after per os application of 200 mg/kg, TWR (%) [6] [%] | IC50 ([3]; Plasmodium falciparum, read-out: IC50 (ng/ml) K1) [ng/mL] | IC50 ([4]; Plasmodium falciparum, read-out: IC50 (ng/ml) NF54) [ng/mL]
CC(C)(O)C[C@H]1CC[C@]2(CC1)OOC1(O2)C2CC3CC(C2)CC1C3 (stereo partly drawn) [OZ205] | 99.96 | 99.96 | 99.94 | 10.0 | 9.7 | 8.7 | 1.6 | 3.3 | 6.0 | 1.5 ng/mL (≈ 4.46 nM) | 2.0 ng/mL (≈ 5.94 nM) | 0 | 12 | 83 | 84 |  | 
O=C(NO)[C@H]1CC[C@@]2(CC1)OOC1(O2)C2CC3CC(C2)CC1C3 (stereo partly drawn) [OZ127] | 95 | 97 | 98 | 7.0 | 7.7 | 7.7 | 2.5 | 7.6 | 19 | 0.61 ng/mL (≈ 1.89 nM) | 1.3 ng/mL (≈ 4.02 nM) |  |  |  |  |  | 
CC1(C)COC2(CCC3(CC2)OOC2(O3)C3CC4CC(C3)CC2C4)OC1 (stereo not drawn) [OZ11] | 99.99 | 100 | 98 | 11.4 | 18 | 7.4 |  | 6.2 | 8.2 |  |  | 16 | 4 | 84 | 85 |  | 
c1ncn(C[C@H]2CC[C@]3(CC2)OOC2(O3)C3CC4CC(C3)CC2C4)n1 (stereo partly drawn) [OZ177] |  |  |  |  |  | 12.7 |  | 3.7 | 5.8 |  |  |  |  |  |  | 0.9 (≈ 2.61 nM) | 1.7 (≈ 4.92 nM)
c1ccc(C[C@H]2CC[C@]3(CC2)OOC2(O3)C3CC4CC(C3)CC2C4)cc1 (stereo partly drawn) [OZ156] | 99.98 | 99.98 | 98.8 | 17.0 | 19.7 | 10.3 | 1.3 | 2.6 | 4.7 | 2.1/2.1 ng/ml | 2.1/2.1 ng/ml | 0 | 6 | 72 | 75 |  | 
CN1CCN(C(=O)C[C@H]2CC[C@]3(CC2)OOC2(O3)C3CC4CC(C3)CC2C4)CC1 (stereo partly drawn) [OZ227] | 99.68 | 99.84 | 99.90 | 8.3 | 10.7 | 9.3 | 2.3 | 4.0 | 6.2 | 0.20/0.20 ng/ml | 0.20/0.20 ng/ml |  |  |  |  |  | 
